Measurements taken from paper PMC12114846, “Interleukin-15Rα-Sushi-Fc Fusion Protein Co-Hitchhikes Interleukin-15 and Pheophorbide A for Cancer Photoimmunotherapy” (Pharmaceutics, 2025).

What was measured:
rILR-Fc = molecular target: T1, rILR-Fc (Homo sapiens, UniProt Q13261); assay: Microscale thermophoresis of PhA with Cy5-labeled rILR-Fc; format: binding; details: MST, Cy5-labeled rILR-Fc 15 nM, PBS buffer
T1 construct: the human sushi domain (amino acids 1-77) of IL-15-Rα; His tag; made in house; host or cells: Pichia pastoris GS115
Experimental: The dissociation constant (KD) between PhA and rILR-Fc was measured by the microscale thermophoresis (MST) technique, according to our previously reported method. Briefly, PhA was dissolved in dimethyl sulfoxide (DMSO) and subjected to a series of dilutions to prepare ligand solutions ranging from 0.4 μM to 0.098 nM. Cy5-labeled rILR-Fc was prepared at a concentration of 15 nM and incubated with the ligand solutions for 10 min. The resulting samples were then loaded into capillaries (NanoTemper Technologies, Munich, Germany) for MST analysis.

[1] = Plasma pharmacokinetics of PhA after i.v. injection; format: in vivo, BALB/c mice; details: 2.5 mg/kg of PhA, mice
Experimental: The free PhA formulation was prepared by dissolving PhA in 0.1% NaOH (w/v) via sonication to obtain a 4 mg/mL stock solution, followed by dilution with PBS to obtain the injection dose. An alkali solution can increase the solubility of pheophorbide A applied to photodynamic therapy. Blood samples were collected from the tail veins into heparin tubes at time points of 0.1, 0.5, 0.75, 1, 1.5, 2, 3, 4, and 5 h post-injection, respectively. PhA was extracted from plasma using a mixture of acetonitrile and methanol (1:1 v/v). The mixture was vortexed for 10 s, followed by centrifugation at 12,000 rpm for 10 min at 4 °C. The supernatant was transferred to a black 96-well plate, and the concentration of PhA was determined by the Hybrid Multi-Mode Microplate Reader (λex = 400 nm, λem = 656 nm).
(§1) Pharmacokinetic parameters including the elimination half-life (t1/2), the area under the concentration–time curve to the least measurable concentration (AUC0→n), the area under the moment curve (AUMC), the mean residence time (MRT), clearance (Cl), and the steady-state volume of distribution (Vss) were calculated using non-compartmental analysis.

s.c. CT26-Luc tumors = assay: Live fluorescence imaging of PhA in s.c. tumor; format: in vivo, BALB/c mice; details: post-injection, i.v., 2.5 mg/kg of PhA
Experimental: The tumor models were established according to our previous method. For the subcutaneous (s.c.) tumor model, 2 × 10^6 CT26-Luc cells in 50 μL PBS were implanted into the right axillary fossae of anesthetized male BALB/c mice. Orthotopic models were established through the injection of 2 × 10^6 CT26-Luc cells (20 μL PBS) into the subserosal layer of the cecum.
Live fluorescence imaging was conducted using the IVIS system (Caliper Life Sciences, USA) (λex = 675 nm, λem = 720 nm) at serial time points (18 min, 30 min, 45 min, 1 h, 1.5 h, 2 h, 3 h, 4 h, 6 h, 17 h, and 27 h) post-injection. The fluorescence intensity in the tumor region was quantified by deducting the fluorescence intensity of the mouse tumor before the administration of nanoparticles from that at each time point post-administration. […] The plasma, heart, liver, spleen, lung, kidney, lymph node, skin, and tumor were harvested for IVIS imaging (λex = 675 nm, λem = 720 nm). The tissue uptake of PhA was presented through the semi-quantitative analysis of the fluorescence intensity.

[2] = Skin photosensitivity after xenon light; format: in vivo, BALB/c mice; details: 2.5 mg/kg of PhA i.v., xenon light 5 mW/cm^2 for 25 min at 24 h post-injection
Experimental: To evaluate the skin photosensitivity, healthy BALB/c mice were depilated and randomly divided into three groups. […] Mice injected with PBS were used as controls. At 24 h post-injection, all mice were exposed to a long-arc xenon lamp (5 mW/cm^2, 25 min), which is generally used in solar simulation systems, emitting a high-intensity radiant flux with a visible spectrum closely approximating that of unfiltered daylight. A 1.5 cm × 1.5 cm section of skin was collected from the dorsal areas of the mice for H&E staining.

[3] = tested on: orthotopic CT26-Luc tumors; assay: Antitumor effect, survival and rechallenge; details: PhA-containing groups + PDT; rILR-Fc/rIL-15 without laser; 2.5 mg/kg of PhA, 0.3 mg/kg of rIL-15; n = 8; PBS group 32 days
Experimental: For the laser treatment, the abdominal cavity of the mouse was opened under anesthesia; then, the tumor foci on the cecum were exposed and irradiated with a 660 nm diode laser (80 mW/cm^2) through a quartz optic fiber (0.9 mm diameter) for 10 min at 35 min post-injection. The abdominal cavity was sutured after the laser treatment. […] The tumor burden was monitored via the bioluminescence signal using an IVIS system after the i.p. injection of D-luciferin (15 mg/mL, 200 μL).
Age-matched naive male BALB/c mice were used as the controls. The tumor volume and the bioluminescence signals were recorded to assess the antitumor effects following different treatments. The death point was defined as when the tumor volume reached 2000 mm^3, calculated by the following equation:(3) Vt=L × W^2/2 where Vt is the tumor volume, L is the tumor length, and W is the tumor width.

M-07e cells = assay: Proliferation of M-07e cells (WST-1); format: cell-based; details: for EC50: 72 h incubation, WST-1
Experimental: The protein of rIL-15 and rILR-Fc were analyzed by sodium dodecyl sulfate–polyacrylamide gel electrophoresis (SDS-PAGE) and a Western blot. The Western blot was performed according to our previously reported method. The primary antibody used in the Western blot was the his-tag mouse monoclonal antibody (1:5000, 66005-1-Ig, Proteintech, Wuhan, China), and the secondary antibody was horseradish peroxidase (HRP)-conjugated goat anti-mouse IgG (1:5000, 33201ES60, Yeasen, Shanghai, China). The biological activity of rIL-15 and rILR-Fc/rIL-15 was determined by their ability to stimulate the proliferation of M-07e cells.
The biological activity of the nanoparticles was determined by their ability to stimulate the proliferation of M-07e cells, as described in the Supplementary Materials. […]
gene fragment (ILR-Fc), which was then ligated into the liner pPIC9k vector. […]
Matrix-assisted laser desorption/ionization time-of-flight mass spectrometry (MALDI-TOF-MS) analysis was performed to calculate the molecular mass of rILR-Fc, with sinapic acid selected as the matrix. The released oligosaccharides were analyzed by sodium dodecyl sulfate-polyacrylamide gel electrophoresis (SDS-PAGE). […]
The biological activity of recombinant proteins or nanoparticles were determined by their ability to stimulate the proliferation of M-07e cells. […]
cells (10,000 cells/well) were plated in RPMI-1640 supplemented with 10% fetal bovine serum (FBS) in a 96-well plate and incubated with proteins (rIL-15, rILR-Fc/rIL-15, rIL-15Rα-Fc/rIL-15, rIL-15-wt, rILR-Fc/rIL-15-wt and rIL-15Rα-Fc/rIL-15-wt) at the specified concentration for 72 h at 37 °C. Cell proliferation was determined using the water-soluble tetrazolium 1 (WST-1) cell counting kit (Beyotime, Shanghai, China) following the manufacturer’s instructions. Similarity, the biological activity of nanoparticles was determined by incubated with nanoparticles at the specified concentration to stimulate the proliferation of M-07e cells. […]
Aﬃnity was measured by enzyme-linked immunosorbent assay (ELISA). […]

[4] = Serum pharmacokinetics of rIL-15 after i.v. injection (ELISA); format: in vivo, C57BL/6 mice; details: 0.3 mg/kg of rIL-15, mice
Experimental: For the rIL-15 group, blood was collected from the tail veins at time points of 5, 10, 15, 20, 30, 45, 60, 75, and 90 min post-injection, respectively. For the other groups, blood was collected at time points of 5, 10, 20, 30, 60, 90, 120, 180, 240, 300, and 360 min post-injection, respectively. The concentrations of rIL-15 in mouse sera were quantified by ELISA, as described above regarding the characterization of the nanoparticles.
as §1

T1 sequence (Q13261 with tags, fused parts or gaps limits assumed): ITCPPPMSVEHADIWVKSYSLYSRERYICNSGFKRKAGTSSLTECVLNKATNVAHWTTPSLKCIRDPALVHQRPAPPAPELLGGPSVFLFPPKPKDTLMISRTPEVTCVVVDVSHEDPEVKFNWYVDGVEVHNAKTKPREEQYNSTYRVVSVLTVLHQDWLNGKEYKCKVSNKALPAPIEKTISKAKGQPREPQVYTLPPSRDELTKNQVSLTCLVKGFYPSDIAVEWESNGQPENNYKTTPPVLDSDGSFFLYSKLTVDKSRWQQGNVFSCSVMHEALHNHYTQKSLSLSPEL

C=Cc1c(C)c2cc3nc(c4c5[nH]c(cc6nc(cc1[nH]2)C(C)=C6CC)c(C)c5C(=O)[C@@H]4C(=O)OC)[C@@H](CCC(=O)O)[C@@H]3C [PhA, pheophorbide A]
Kd (rILR-Fc): 200 nM | AUMC of PhA [1]: 15.97 ± 4.162 μg/mL·h^2 | Cl of PhA [1]: 8.129 ± 1.527 (μg)/(μg/mL)/h | Vss of PhA [1]: 18.20 ± 1.111 (μg)/(μg/mL) | MRT ([1]; male, BALB/c, mouse, iv): 2.35 ± 0.315 h | AUC ([1]; male, BALB/c, mouse, iv, read-out: AUC0→n of PhA): 6490 ± 1010 ng·h/mL | half-life ([1]; male, BALB/c, mouse, iv, read-out: t1/2 of PhA (converted)): 1.76 ± 0.164 h | time of peak accumulation of PhA in the tumor (s.c. CT26-Luc tumors): 1.5 h | skin after light exposure (H&E staining) [2]: remained unchanged after light exposure | median survival time [3]: 42 days

rIL-15-wt: recombinant wild type IL-15 obtained from Sino biological (10360-H07E)
EC50 (M-07e cells): 3.26 nM

rIL-15: N72D-mutated human IL-15 produced in E. coli BL21 (DE3) cells
EC50 (M-07e cells): 0.92 nM | EC50 fold smaller than that of rIL-15-wt (M-07e cells; M-07e proliferation): ~ 3.5 fold | AUC0→n of rIL-15 [4]: 664.4 ± 196.1 ng/mL·min (×10) | AUMC of rIL-15 [4]: 544.5 ± 73.17 ng/mL·min^2 (×10^2) | Cl of rIL-15 [4]: 5.766 ± 2.519 (μg)/(ng/mL)/min (×10^−4) | MRT of rIL-15 [4]: 9.913 ± 2.956 min | Vss of rIL-15 [4]: 6.351 ± 3.348 (μg)/(ng/mL) (×10^−3) | t1/2 of rIL-15 [4]: 0.3373 ± 0.0195 h
